{
  "source": "paper PMC6429600",
  "about": "“Development of a dual-functional conjugate of antigenic peptide and Fc-III mimetics (DCAF) for targeted antibody blocking” (Chemical Science, 2019)",
  "key": {"[1]": {"molecular_target": "Ab3 (monoclonal antibody raised against pep3)", "assay": "SPR binding to immobilized Ab3", "parameters": "species or system mouse", "settings": "BIAcore T200, Ab3 immobilized on CM5 chip, PBS with 0.005% surfactant P20, mean ± SD (n = 3), read-out: Kd of Ab3 binding (apparent Kd for DCAF)", "protocol": "(§1) Surface plasmon resonance (SPR) experiments were performed using a BIAcore T200 instrument (GE healthcare) equipped with a CM5 sensor chip. Briefly, Ab1, Ab2 or Ab3 were directly immobilized onto a CM5 sensor chip using an EDC/NHS amine coupling kit. A blank channel was used as the negative control. For SPR measurements, all peptides were directly dissolved in running buffer (PBS with 0.005% surfactant P20). The analytes were injected and disassociated with immobilized IgG at a flow rate of 30 μl min^–1. After each binding and dissociation cycle, the surface of a sensor chip was regenerated using 10 mM glycine-HCl buffer (pH 2.0). The sensorgrams were corrected by subtraction of the signal from the negative control flow path and curve-fitted to calculate the reaction rate and constants using Evaluation 1.0 software."}, "[2]": {"test_system": "Ab2", "assay": "ELISA competition assay of Ab2 binding to GST-fused pep2", "type": "biochemical, mouse", "settings": "sandwich ELISA, GST-fused pep2, Ab2 10 nM, OD450", "protocol": "A standard sandwich ELISA assay was used for competition experiment. Briefly, 96-well microtiter plates were coated overnight with anti-GST antibody (10 nM) at 4 °C and blocked with 200 μL of 1% BSA in PBS at room temperature for 1 h. Then the artificial antigen (0.5 nM), pep2 coupled with the GST protein, was added to the wells and incubated for 2 h at RT. The plates were washed with PBS/0.05% Tween 20, and Ab2 (10 nM) or Ab2 (10 nM) plus other ligands, antigen, Fc-III or DCAF2 at series concentrations, were added and incubated for 2 h at RT. […] For a C1q binding assay, rat C1q ELISA kit was used following the protocol of the manufacturer. Briefly, incubated 25 ng mL^–1 C1q and series concentrations of Ab4 or DCAF4 with a pre-coated C1q capture antibody for 2 h at RT. Then HRP linked detection antibody was added for 1 h at RT and the TMB substrate was used to measure the concentration of C1q at OD450."}, "[3]": {"molecular_target": "Ab1 (4G2 antibody)", "assay": "SPR binding to immobilized Ab1", "parameters": "species or system mouse", "settings": "BIAcore T200, Ab1 immobilized on CM5 chip, PBS with 0.005% surfactant P20, 30 μl/min, mean ± SD (n = 3), read-out: Kd of Ab1 binding (apparent Kd for DCAF)", "protocol": "as §1"}, "[4]": {"molecular_target": "Ab2 (monoclonal antibody raised against pep2)", "assay": "SPR binding to immobilized Ab2", "parameters": "species or system mouse", "settings": "BIAcore T200, Ab2 immobilized on CM5 chip, PBS with 0.005% surfactant P20, mean ± SD (n = 3), read-out: Kd of Ab2 binding (apparent Kd for DCAF)", "protocol": "as §1"}, "[5]": {"molecular_target": "Ab4 (mAb35 antibody)", "assay": "SPR binding to immobilized Ab4", "settings": "mean ± SD (n = 3), read-out: Kd of Ab4 binding (apparent Kd for DCAF)"}, "[6]": {"molecular_target": "4G2 antibody (Ab1), ADE-inducible mouse monoclonal IgG (mouse)", "assay": "SPR; BIAcore T200; antibody (IgG) immobilised on a CM5 chip by EDC/NHS amine coupling; peptides as analytes in PBS with 0.005% surfactant P20, 30 ul/min; regeneration 10 mM glycine-HCl pH 2.0; apparent Kd for DCAF, bivalent fit gives Kd1 and Kd2"}, "[7]": {"molecular_target": "mAb35 (Ab4), commercial antibody that blocks the acetylcholine receptor", "assay": "SPR"}},
  "data": [
    {"compound": "CC(C)C[C@@H]1NC(=O)[C@H](Cc2c[nH]cn2)NC(=O)[C@H](Cc2c[nH]c3ccccc23)NC(=O)[C@H](C)NC(=O)[C@@H](NC(=O)[C@@H](N)CC(=O)O)CSSC[C@@H](C(=O)N[C@H](C(=O)O)[C@@H](C)O)NC(=O)[C@H](Cc2c[nH]c3ccccc23)NC(=O)[C@H](C(C)C)NC(=O)[C@H](CC(C)C)NC(=O)[C@H](CCC(=O)O)NC(=O)CNC1=O", "note": "[Fc-III]", "values": [
      {"measurement": "Kd", "setting": "[1]", "result": "134 ± 6", "unit": "nM"},
      {"measurement": "inhibition of antigen–antibody (pep2–Ab2) binding", "setting": "[2]", "result": "did not inhibit"},
      {"measurement": "Kd", "setting": "[3]", "result": "239 ± 2", "unit": "nM"},
      {"measurement": "Kd", "setting": "[4]", "result": "169 ± 18", "unit": "nM"}
    ]},
    {"compound": "CC(C)C[C@@H]1NC(=O)[C@H](Cc2c[nH]cn2)NC(=O)[C@H](Cc2c[nH]c3ccccc23)NC(=O)[C@H](C)NC(=O)[C@@H]2CSSC[C@H](NC(=O)[C@H](Cc3c[nH]c4ccccc34)NC(=O)[C@H](C(C)C)NC(=O)[C@H](CC(C)C)NC(=O)[C@H](CCC(=O)O)NC(=O)CNC1=O)C(=O)N[C@@H]([C@@H](C)O)C(=O)N[C@H](C(=O)O)CSSC[C@H](N)C(=O)N[C@@H](CC(=O)O)C(=O)N2", "note": "[Fc-III-4C]", "values": [
      {"measurement": "Kd", "setting": "[5]", "result": "13.99 ± 0.03", "unit": "nM"}
    ]},
    {"compound": "Fc-III peptide", "values": [
      {"measurement": "Kd", "setting": "[6]", "result": 239, "unit": "nM"}
    ]},
    {"compound": "Fc-III-4C peptide", "values": [
      {"measurement": "Kd", "setting": "[7]", "result": 14, "unit": "nM"}
    ]}
  ]
}
